EP4806911A1, “TRIPLE AGONIST COMPOUND” (Chengdu Aoda Biotechnology Co., Ltd, priority 2023, dated 2025)

Assay: Preliminary pharmacokinetic characteristic evaluation
Type: in vivo, cynomolgus monkeys
Conditions: for half-life: cynomolgus monkey, sc, male cynomolgus monkeys, administered subcutaneously at 0.2 mg/kg, plasma, LC-MS; for half-lives: cynomolgus monkeys, administered subcutaneously
Experimental: Among the above compounds, the principle of modification for long-acting was essentially the same.
The test animals were male cynomolgus monkeys. Two animals were used for each compound. The compounds were administered subcutaneously at a dose of 0.2 mg/kg. Blood samples were collected via intravenous sampling prior to administration (0 h) and at 1 h, 2 h, 3 h, 4 h, 8 h, 12 h, 18 h, 24 h, 48 h, 96 h, 144 h, and 168 h after administration. Plasma samples were obtained by centrifugation. The plasma concentrations of the compounds were respectively determined by liquid chromatography - mass spectrometry (LC-MS).

Row | Compound | half-life [h] | half-lives
1 | CC[C@H](C)[C@H](NC(=O)[C@H](Cc1ccccc1)NC(=O)[C@H](C)NC(=O)C(C)(C)NC(=O)[C@H](CCC(N)=O)NC(=O)[C@H](C)NC(=O)[C@H](CCCCNC(=O)COCCOCCNC(=O)CCC[C@H](NC(=O)CCCCCCCCCCCCCCCCCCC(=O)O)C(=O)O)NC(=O)[C@H](CCCCN)NC(=O)[C@H](CC(=O)O)NC(=O)[C@H](CC(C)C)NC(=O)C(C)(CC(C)C)NC(=O)[C@@H](NC(=O)[C@H](CO)NC(=O)[C@H](Cc1ccc(O)cc1)NC(=O)[C@H](CC(=O)O)NC(=O)[C@H](CO)NC(=O)[C@@H](NC(=O)C(C)(Cc1ccccc1F)NC(=O)[C@@H](NC(=O)CNC(=O)[C@H](CCC(N)=O)NC(=O)C(C)(C)NC(=O)[C@@H](N)Cc1ccc(O)cc1)[C@@H](C)O)[C@@H](C)O)[C@@H](C)CC)C(=O)N[C@@H](CCC(=O)O)C(=O)N[C@@H](Cc1ccc(O)cc1)C(=O)N[C@@H](CC(C)C)C(=O)N[C@@H](CC(C)C)C(=O)N[C@@H](CCC(=O)O)C(=O)NCC(=O)NCC(=O)N1CCC[C@H]1C(=O)N[C@@H](CO)C(=O)N[C@@H](CO)C(=O)NCC(=O)N[C@@H](C)C(=O)N1CCC[C@H]1C(=O)N1CCC[C@H]1C(=O)N1CCC[C@H]1C(=O)N[C@@H](CO)C(N)=O (stereo partly shown) [Compound 6] | 94.7 | greater than 80 hours
2 | CC[C@H](C)[C@H](NC(=O)[C@H](Cc1ccccc1)NC(=O)[C@H](C)NC(=O)C(C)(C)NC(=O)[C@H](CCC(N)=O)NC(=O)[C@H](C)NC(=O)[C@H](CCCCNC(=O)COCCOCCNC(=O)CCC[C@H](NC(=O)CCCCCCCCCCCCCCCCCCC(=O)O)C(=O)O)NC(=O)[C@H](CCCCN)NC(=O)[C@H](CC(=O)O)NC(=O)[C@H](CC(C)C)NC(=O)C(C)(CC(C)C)NC(=O)[C@@H](NC(=O)[C@H](CO)NC(=O)[C@H](Cc1ccc(O)cc1)NC(=O)[C@H](CC(=O)O)NC(=O)[C@H](CO)NC(=O)[C@@H](NC(=O)C(C)(Cc1ccccc1)NC(=O)[C@@H](NC(=O)CNC(=O)[C@H](CCC(N)=O)NC(=O)C(C)(C)NC(=O)[C@@H](N)Cc1ccc(O)cc1)[C@@H](C)O)[C@@H](C)O)[C@@H](C)CC)C(=O)N[C@@H](CCC(=O)O)C(=O)N[C@@H](Cc1ccc(O)cc1)C(=O)N[C@@H](CC(C)C)C(=O)N[C@@H](CC(C)C)C(=O)N[C@@H](CCC(=O)O)C(=O)NCC(=O)NCC(=O)N1CCC[C@H]1C(=O)N[C@@H](CO)C(=O)N[C@@H](CO)C(=O)NCC(=O)N[C@@H](C)C(=O)N1CCC[C@H]1C(=O)N1CCC[C@H]1C(=O)N1CCC[C@H]1C(=O)N[C@@H](CO)C(N)=O (stereo partly shown) [Compound 2] | 83.5 | greater than 80 hours
